Data set [1] has as its system LTP in the CA 1 region of the hippocampus section. Nature of the data set: early LTP after weak tetanus in hippocampus sections, CA 1 region (fEPSP slope). The class given is cell-based, Wistar rats. The settings on record: 10 μM.
For the next data set, the target named is T1, NHE-5 (Homo sapiens, UniProt Q14940).
T1 construct: expressed in transfected cells
T1 sequence (Q14940 1-896): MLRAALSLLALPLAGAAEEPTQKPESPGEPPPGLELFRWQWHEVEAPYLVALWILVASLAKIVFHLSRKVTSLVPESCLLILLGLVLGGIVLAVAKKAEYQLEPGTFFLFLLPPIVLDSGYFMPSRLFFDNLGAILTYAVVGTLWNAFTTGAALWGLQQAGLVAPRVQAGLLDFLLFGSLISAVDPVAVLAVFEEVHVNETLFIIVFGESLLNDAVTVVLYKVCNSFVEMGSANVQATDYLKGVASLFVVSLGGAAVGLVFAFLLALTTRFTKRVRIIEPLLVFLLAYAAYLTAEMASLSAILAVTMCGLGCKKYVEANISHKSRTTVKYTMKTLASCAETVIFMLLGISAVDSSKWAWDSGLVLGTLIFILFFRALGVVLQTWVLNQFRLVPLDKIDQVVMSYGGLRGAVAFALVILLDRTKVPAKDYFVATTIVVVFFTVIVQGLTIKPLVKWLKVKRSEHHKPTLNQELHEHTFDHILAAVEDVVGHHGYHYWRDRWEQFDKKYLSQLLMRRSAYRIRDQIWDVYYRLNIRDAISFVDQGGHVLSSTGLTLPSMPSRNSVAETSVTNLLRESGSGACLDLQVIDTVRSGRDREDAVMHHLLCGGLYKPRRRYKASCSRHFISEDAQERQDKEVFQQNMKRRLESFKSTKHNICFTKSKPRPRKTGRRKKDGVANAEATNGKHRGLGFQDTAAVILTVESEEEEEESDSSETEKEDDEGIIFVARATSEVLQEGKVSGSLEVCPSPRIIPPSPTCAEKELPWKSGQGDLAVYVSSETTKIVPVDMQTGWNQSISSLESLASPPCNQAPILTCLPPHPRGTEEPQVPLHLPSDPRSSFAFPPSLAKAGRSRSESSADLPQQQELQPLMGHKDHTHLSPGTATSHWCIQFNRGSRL
In words: recovery of intracellular pH in LAP1 cells stably expressing NHE subtypes after acidification (BCECF, FLIPR). The class given is cell-based. As to conditions: LAP1 cells expressing NHE-5; pH recovery registered for two minutes. The procedure:
In order to obtain pharmacological data for NHE-5 inhibition, the recovery in the intracellular pH (pHi) of LAP1 cells, which stably express the different subtypes of the sodium-proton exchanger (NHE), was determined after an acidification. This recovery occurs even under bicarbonate-free conditions in the case of functioning NHE. To this end, the pHi was determined with the pH-sensitive fluorescent dye BCECF (Molecular Probes, Eugene, Oreg., USA; the precursor BCECF-AM is used). […] The pH recovery was started by the addition of 90 μl of Na^+-containing buffer (133.8 mM NaCl, 4.7 mM KCl, 1.25 mM CaCl2, 1.25 mM MgCl2, 0.97 mM Na2HPO4, 0.23 mM NaH2PO4, 10 mM Hepes, 5 mM glucose; a pH of 7.4 is established with 1 M NaOH) in the analytical instrument (FLIPR, “Fluorometric Imaging Plate Reader”, Molecular Devices, Sunnyvale, Calif., USA). The BCECF fluorescence was determined at an excitation wavelength of 498 nm and the FLIPR emission filter 1 (band gap from 510 to 570 nm). The subsequent changes in fluorescence were registered for two minutes at NHE-5 as a measure of the pH recovery. […] From the percentages of the pH recovery, the IC50 value of the particular substance for the individual NHE subtypes was calculated by means of the program XLFit (idbs, Surrey, UK).

This note sets out measurements from US20080234317A1, “METHODS FOR THE IMPROVEMENT OF MEMORY AND NEUROLOGICAL FUNCTION COMPRISING THE ADMINISTRATION OF COMPOSITIONS THAT ACT AS INHIBITORS OF THE SODIUM PROTON (NA+ /H+ ) EXCHANGER, SUBTYPE 5 (NHE-5)” (SANOFI-AVENTIS, priority 2005, published 2008).

Structures are written as SMILES. Counter-ions that a name gives are not always drawn.

What is called melting point is the temperature of the solid-liquid transition. With `CN1Cc2c(Cl)cc(Cl)cc2C(c2ccc(S(=O)(=O)N=C(N)N)cc2)C1` (centres unmarked) (as salt: hydrochloride) [Example 1, N-Diaminomethylene-4-(6,8-dichloro-2-methyl-1,2,3,4-tetrahydroisoquinolin-4-yl)benzenesulfonamide, dihydrochloride], the melting point was 140 °C (dec.).

In general, IC50 refers to the concentration that gives 50% inhibition. For the compound `CN1Cc2c(Cl)cc(Cl)cc2C(c2ccc(S(=O)(=O)N=C(N)N)cc2)C1` (centres unmarked) [Example 1, N-Diaminomethylene-4-(6,8-dichloro-2-methyl-1,2,3,4-tetrahydroisoquinolin-4-yl)benzenesulfonamide, dihydrochloride], in data set [1] (flushed 20 min before stimulation, washed out 20 min after, 80 min after the stimulus, control 113%), the “potentiation of the EPSP, % of the baseline” value is listed as “under 137 % of the baseline”. For the same compound, the “intrinsic effect on synaptic transmission” value in data set [1] (baseline recording before tetanus, rat hippocampus sections) is “no intrinsic effect on synaptic transmission”. Moreover, the “maintenance of the weak LTP” value in data set [1] (weak tetanus, rat hippocampus sections) is on record as “improve maintenance of the weak LTP”. Besides, the IC50 at NHE-5 was found to be 370 nM.
